Reference: patent US20190192456A1, “USE OF CELIPROLOL FOR TREATING VASCULAR EHLERS-DANLOS SYNDROME IN WOMEN DURING PREGNANCY AND PERIPARTUM PERIOD” (Assistance Publique-Hôpitaux de Paris (AP-HP), priority 2017, published 2019)

What was measured:
Type in all cases: in vivo, human
[1] = test system: newborn of mothers who received celiprolol during pregnancy and delivery; assay: Newborn well-being after indirect exposure to celiprolol during pregnancy; conditions: n=7 newborn of mothers who received celiprolol during pregnancy and delivery
Experimental: For each newborn, weight and height at birth were recorded and presented as a function of term of pregnancy, as previously described. Health status at birth was assessed by the APGAR score noted in the children's health record, and any significant event that occurred at birth was collected (respiratory failure, pneumothorax, significant verifiable birth defects).
Reference charts for birth weight and size were constructed according to Battaglia et al. with normal values based on approximately 57 000 newborn of the Paris (France) area as reported by Salomon et al.[15].

[2] = test system: parturients with vascular Ehlers-Danlos syndrome; assay: Maternal mortality analysis of vascular EDS families; conditions: one patient, 7 months after delivery; programmed early c-section, unremarkable arterial monitoring after the postpartum period
Source text: For the mortality analysis, the medical charts and pedigrees of all patients known to the French referral center for rare vascular diseases (AP-HP, Centre de Référence des Maladies Vasculaires Rares, Hôpital Européen Georges Pompidou, Paris, France) for having a molecularly confirmed vascular EDS, were screened for past or ongoing pregnancies, and for maternal deaths in probands and pedigrees. All families known to our center with at least one proband diagnosed with vascular EDS (nationwide patient cohort) were considered for participation to the maternal mortality analysis after exclusion of ascendants of patients with neomutations (see below). Patients with a personal history of pregnancy were considered for participation to the obstetrical interview study. […]
Maternal deaths were determined according to definitions of the 10th revision of the International Classification of Diseases of the World Health Organization (Geneva 2004). Pregnancy-related deaths defined as the death of a woman while pregnant or within 42 days of termination of pregnancy, irrespective of the cause of death, were determined for probands, first and second degree ascendants. […] A global maternal mortality ratio was then determined, which encompassed pregnancy-related and late maternal mortality ratios. […]

[3] = test system: parturients with molecularly confirmed vascular Ehlers-Danlos syndrome; assay: Maternal morbidity study (obstetrical interview study) of vascular EDS parturients; prescription of celiprolol during pregnancy, delivery and post-partum period
Experimental: For each pregnancy, date and time of delivery were recorded, as well as term of pregnancy at birth, expressed in weeks of amenorrhea (WA). In case of preterm labour or premature rupture of membranes (PROM), gestational age of occurrence was noted. Ongoing treatments during pregnancy were recorded, especially betablockers (celiprolol). In case of anaesthesia, type of ([…], general) and complications were collected (haematoma, leakage of spinal fluid, pneumothorax for general anaesthesia). Delivery was described as follows: type (vaginal, c-section), duration of labour for vaginal delivery and the use of forceps or episiotomy. Vascular complications were defined by the occurrence of arterial dissections and ruptures during pregnancy, delivery and during the post-partum period defined as 42 days after delivery. Haemorrhagic complications were defined by, either significant bleeding when reported as such by patients and/or medical records, either by bleeding requiring blood transfusion or post-partum haemorrhage. Bleeding events >1000 ml with hemodynamic collapse are reported as haemorrhagic shock. Perineal damage was defined by the occurrence of a perineal tear related or not with episiotomy. Perineal injury was graded according to Sultan et al., from grade I (limited defect of perineal skin), to grade IV (injury of the perineum involving the anal sphincter complex and epithelium) perineal tears.
After the first interview, all relevant obstetrical data, especially term of pregnancies and obstetrical complications (preterm labour, PROM, uterine rupture, haemorrhage) were independently checked for accuracy of diagnosis and staging by a senior obstetrician during a second interview, and hospital records of deliveries were checked, when available.
Programmed Early C-Section and Prescription of Celiprolol
In n=12 (20%) pregnancies of this cohort, diagnosis of maternal vascular EDS (n=11, 28%) was suspected (n=2) or genetically confirmed (n=9) at the time of delivery, with consequent obstetrical management (prescription of celiprolol 200 mg BID in n=7 patients covering 7/12 pregnancies; preterm c-section in n=11/12 deliveries, of which 9 were scheduled).

[4] = patients treated with celiprolol 200 mg BID, n=7

In the case of CCN(CC)C(=O)Nc1ccc(OCC(O)CNC(C)(C)C)c(C(C)=O)c1 (centres unmarked) [celiprolol, N′-(3-Acetyl-4-(3-((1,1-dimethylethyl)amino)-2-hydroxypropoxy)phenyl)-N,N-diethylurea], the neonatal hypoglycaemia [1] is reported as “none of the n=7 newborn”, the “other indications of adverse effects of indirect exposure to celiprolol during pregnancy” value [1] is reported as “nor had other indications of adverse effects” and the “late maternal death by spontaneous intra-abdominal arterial rupture” value [2] is reported as “occurred spontaneously despite a programmed early c-section, medication by celiprolol”. For the same compound, the “tolerability of celiprolol throughout pregnancy and the post-partum period” value ([3]; celiprolol 200 mg BID in n=7 patients covering 7/12 pregnancies) was “well tolerated”, the “dose adjustment in comparison to the dosage prescribed prior to the beginning of each pregnancy” value ([3]; celiprolol 200 mg BID, n=7 patients, throughout pregnancy and the post-partum period) was “no dose adjustment was necessary in any patient” and the “arterial event (dissection, rupture)” value [3, 4] was “No arterial event (dissection, rupture)”. The “maternal survival of pregnancies and post-partum periods” value [3, 4] was “all patients treated with celiprolol survived” and the uterine rupture [3, 4] was “nor uterine rupture occurred in any patient”.
